The subject of test [1] is SKOV3 cells. The experiment in a line: Boyden chamber migration of SKOV3 cells induced by NIH3T3-CM/VEGF. The class given is cell-based. The conditions noted are these: for Effective concentration for cell migration inhibition, lower end / Effective concentration for cell migration inhibition, upper end: SKOV3 migration. Here is the method: (§1) A2780 (FIG. 10a) and SKOV3 (FIG. 10b) cells were incubated with the indicated concentrations of Å6 peptide for 30 min at 37° C. Aliquots representing 6,000 cells were placed on quadruplicate, CnI-coated filters (8 μm pores) in Boyden chambers and the cells allowed to migrate overnight in response to 10 ng/ml VEGF in NIH3T3-conditioned media containing the indicated concentrations of Å6. Upon completion of migration, the apical surfaces of the membranes were wiped clean and the migrating cells on the basal surface were stained with Geimsa stain and the cells present in representative fields of the membranes counted. Data represent the averages+/−standard deviations obtained from the replicate filters. […] This provides further confirmation that CD44 is the target for the Å6 peptide.
SKOV3 cells are harvested by trypsinization and washed once with RPMI-0.5% BSA. Next, the cells are re-suspended in RPMI+0.5% BSA@6E4/mL (6000 cells/100 μL). The peptide is pre-treated with 500 μL of cells added to 500 μL peptide NASAPPEE (SEQ ID NO: 3) (2× concentration, final conc, at 100, 10, 1, 0.1, 0.01, 0.001 uM) and the mixture incubated 30 minutes at 37° C., under 5% CO2. The Boyden chamber is assembled by: Placing in the bottom chambers: 220 μL of serum/BSA free DMEM or NIH3T3CM+10 ng/ml VEGF or NIH3T3CM+10 ng/ml VEGF+peptide. Place 8 μm filters on the top of the bottom chambers. The 8 μm filters are coated with 1 mg/ml collagen I at 4° C. overnight, washed with PBS twice, air dry before use. Add 200 μL of cells with or without peptide pretreatment to the top of Boyden chamber. Note that the peptide is in both top and bottom chambers. Cells migrate overnight at 37° C., under 5% CO2 in incubator. Next, Boyden chambers are disassembled the and filters collected. The cells on the filters after collection are treated with −20° C. methanol for 3 minutes at room temperature and stained with 30% Geimsa for 7 minutes at room temperature, and washed with water twice. The filters are mounted on slides, air dried and the cells counted.
Cell numbers were obtained by counting the cells in four fields of filters using a 40× objective. The cells migrating into the bottom chambers were also counted as follows: a) 200 μL fluid in the bottom chamber was transferred to a well of 96-well plate; b) The plate was centrifuged at 1200 rpm for 5 minutes; c) 180 μL of supernatant was removed; d) The cell pellet was resuspended with the remaining 20 μL fluid and the cells counted using a hemocytometer. […] This compares favorably to the Å6 peptide which is effective between 5 μM and 100 nM.

The target in test [2] is T1, CD44 (Homo sapiens, UniProt P16070).
T1 construct: endogenous in cells; host or cells: SKOV3
The test is described as follows: Immunoprecipitation of Å6Cbio-crosslinked SKOV3 polypeptides with anti-CD44, HRP-SA blotting. The test is classed as binding. The conditions noted are these: SKOV3 cells, 100 μM Å6Cbiotin, BS3 crosslinking, anti-CD44 DF1485. Here is the method: In FIGS. 1 and 2 SKOV3 cells were incubated with or without 100 μM Å6Cbiotin (Å6CbioXL and ConXL, respectively) for 30 min at 4° C. The cells were then crosslinked with 5 mM bis(sulfosuccinimidyl) suberate (Sulfo-DSS or BS^3) for 30 min at 4° C. and Triton X-100 lysates generated. The lysates were pre-cleared by incubating with Protein A-agarose for 2 hr at room temperature. Aliquots representing 100 μg of the cleared lysates were then incubated overnight at room temperature with 20 μL of Protein A-agarose plus 2 μg of anti-Tenascin R (TnR; E-18, Santa Cruz Biotech.), anti-Tenascin C (TnC; 300-3, Santa Cruz Biotech.), anti-CD44 (DF1485, Santa Cruz Biotech.), anti-Plexin-A1 (P1 A1; H-60, Santa Cruz Biotech.) or murine IgG1 (Sigma Chem. Co.). After washing 5 times with lysis buffer, the immunoprecipitated polypeptides were eluted from the Protein A-agarose by boiling in SDS-PAGE sample buffer. The eluted material and 2 μg aliquots of the starting material were then subjected to SDS-PAGE, transfer to PVDF membranes and blotting with chemiluminescent horseradish peroxidase (HRP)-conjugated streptavidin (HRP-SA).
In FIG. 3 SKOV3 cells were incubated with or without 100 μM Å6Cbiotin (Å6CbioXL and control, respectively) for 30 minutes at 4° C. The cells were then crosslinked with 5 mM BS3 for 30 min at 4° C. […]

The subject of test [3] is A2780 cells. The test is described as follows: Boyden chamber chemotaxis of A2780 cells. The class given is cell-based. The conditions noted are these: 10 ng/ml VEGF in NIH3T3-conditioned media, overnight. Here is the method: as §1
For test [4], the target named is T1, CD44. The experiment in a line: Dimerization of CD44 in SKOV3 cells, anti-CD44 B-F24 immunoblot. The class given is cell-based. To be noted: SKOV3 cultured 20 hr with 1 or 10 μM Å6, non-reducing. Here is the method: In FIG. 13 SKOV3 cells were cultured for 20 hr with no additions, 1 or 10 μM Å6 or 100 ng/ml PMA. Triton X-100 lysates were generated and further solubilized in SDS-PAGE sample buffer under non-reducing conditions. Aliquots representing 7.5 μg of cellular protein were subjected to SDS-PAGE followed by immunoblot analysis with the anti-CD44 murine monoclonal B-F24. The presence of stained higher molecular weight bands can be indicative of CD44 dimers and/or oligomers.
A general note: Immunoblotting shows a protein as a band on a membrane.

In test [5] the target is T2, CD44 on SKOV3 cells (Homo sapiens, UniProt P16070).
T2 construct: endogenous in cells; host or cells: SKOV3
The experiment in a line: FACs analysis of anti-CD44 (DF1485) binding to SKOV3 cells in the presence of Å6. The conditions noted are these: pre-incubation with Å6 on ice 10 or 30 min, FACS MnI. The test is classed as cell-based. Here is the method:
In FIG. 4 SKOV3 cells were detached from their culture flasks by brief trypsinization, washed twice with DPBS and incubated on ice with the indicated concentrations of Å6 for 10 min (exp. 1) or 30 min (exp. 2). Anti-CD44 (DF1485; Santa Cruz Biotech.) or its isotype control were then added to final concentrations of 1 μg/ml (exp. 1) or 1 and 0.5 μg/ml (exp. 2) and the cells incubated for 1 hr on ice. The cells were washed once and incubated with FITC-conjugated donkey anti-mouse IgG (H+L) for 30 minutes on ice and then subjected to FACS analysis with a Beckman Coulter Epics XL-MCL cytofluorimeter. Data analysis was performed using the Coulter Epics software. Note: Data are presented as mean fluorescence intensities (MnI) obtained with the MnI of the negative control in each experiment adjusted to <0.5 during data collection. […] Similar CD44 expression in ovarian cancer lines using different anti-CD44 antibodies is assessed in FIG. 5, for which the MnI values are summarized in FIG. 6.

For test [6], the target named is T2, CD44 on SKOV3 cells. The experiment in a line: FACs analysis of IM7 binding to SKOV3 cells in the presence of Å6. The class given is cell-based. To be noted: IM7 1 μg/ml, 4° C. Here is the method:
In FIGS. 14a and 14b SKOV3 cells were incubated with the indicated concentrations of Å6 for 30 min at 4° C. IM7 (1 μg/ml) was then added and allowed to bind for 30 min at 4° C., after which the cells were washed and incubated with FITC-donkey anti-rat IgG for 30 min at 4° C. The cells were washed once and then subjected to FACs analysis.

Test [7] has as its system A2780 cells. The test is described as follows: Adhesion of A2780 cells to hyaluronic acid. The test is classed as cell-based. To be noted: immobilized HA; 1 or 10 μM Å6. Here is the method: In FIG. 12 A2780 cells were cultured overnight with or without 10 μM Å6 or 100 ng/ml PMA. The cells were then detached, washed and loaded with 20 μg/ml CFDA-SE for 30 min at 37° C. After washing, the cells were resuspended in PBS containing 10% FCS and triplicate aliquots representing 100,000 cells incubated for 30 min at room temperature with no additions, 1 or 10 μM Å6 or with 20 ng/ml IM7, a blocking anti-CD44 rat monoclonal antibody. The cells were then placed into microtiter wells that had been coated with 50 ul of 1 mg/ml HA overnight and blocked for 30 min with 10% FCS. The cells were allowed to adhere at room temperature for 30 min after which, the wells were decanted and washed 3 times. The fluorescence in each well was assessed (excit./emiss.: 460/536 nm) and the mean fluorescence values (+/standard deviation) of the triplicate determinations calculated.

The subject of test [8] is SKOV3 cells. The experiment in a line: Adhesion of SKOV3 cells to hyaluronic acid. The class given is cell-based. Here is the method: In FIG. 11 SKOV3 cells were cultured overnight with or without 10 μM Å6 or 100 ng/ml PMA. The cells were then detached, washed and loaded with 20 μg/ml CFDA-SE for 30 min at 37° C. After washing, the cells were resuspended in PBS containing 10% FCS and triplicate aliquots representing 100,000 cells incubated for 30 min at room temperature with no additions, 1 or 10 uM Å6 or with 20 ng/ml IM7, a blocking anti-CD44 rat monoclonal antibody. The cells were then placed into microtiter wells that had been coated with 50 μl, of 1 mg/mL HA overnight and blocked for 30 min with 10% FCS. The cells were allowed to adhere at room temperature for 30 minutes after which, the wells were decanted and washed 3 times. The fluorescence in each well was assessed (excit./emiss.: 460/536 nm) and the mean fluorescence values (+/standard deviation) of the triplicate determinations calculated. […] The control experiment with IM7 (graphs on far right) indicates inhibition of SKOV3 binding to HA in the presence of this anti-CD44, which indicates a role for CD44 in binding HA.

The subject of the next test is B16 melanoma cells. The experiment in a line: B16 melanoma lung metastasis model. The class given is in vivo, C57BL/6J mice. The conditions noted are these: about 1×10^5 melanoma cells injected in the tail vein. Here is the method: The B16 melanoma metastasis is well known in the art. A typical protocol for assessing the inhibitory effect of a compound on metastasis is described below. Such a protocol was followed to assess the effect of Å6 on metastasis.
Briefly, B16 melanoma cells can be cultured in RPMI-1640 with 10% fetal bovine serum at 37° C. in an atmosphere of 95% air and 5% CO2. C57BL/6J mice of six to eight weeks can be purchased from commercial suppliers. For the lung metastasis model, about 1×10^5 melanoma cells suspended in 100 μl saline were injected in the tail vein in the presence or absence of Å6. Administration of the Å6 peptide inhibited the lung metastasis by 50% or more.

The target of test [9] is T1, CD44. The experiment in a line: Anti-CD44 (DF1485) immunoblot analysis of Å6CbioXL polypeptides and Å6-BSA. The class given is binding. To be noted: SKOV3 lysates. Here is the method: In FIG. 7 30 μg aliquots of Å6CbioXL and control (ConXL) SKOV3 lysates, as well as 2 μg aliquots of Å6-crosslinked BSA (Å6-BSA) and BSA, were subjected to immunoblot analysis using the DF1485 anti-CD44 antibody (Santa Cruz Biotech). The DF1485 blots were stained with HRP-conjugated sheep anti-Mouse IgG; heavy and light chain specific (GE Health Sciences). The rabbit anti-Å6 blot was stained with HRP-conjugated donkey anti-rabbit IgG; heavy and light chain specific (Jackson Immunoresearch). Stained bands were visualized by the ECL-plus chemiluminescence reagent (GE Health Sciences) and exposure to Hyperfilm ECL film (GE). In panel 1, anti-CD44 produced bands in the Å6CbioXL (A lane) and control (C) lane. […] In addition, 2 μg aliquots of the Å6CbioXL and ConXL lysates were concurrently blotted with HRP-streptavidin to identify polypeptides labeled with Å6Cbio, and shown in panel 2. 2 μg of Å6-BSA and BSA were also blotted with Rb anti-Å6 to confirm the presence of Å6 on the Å6-BSA, as shown in the third panel of FIG. 7.

“Also recorded” adds a separate entry of the source. No end group written: not given here.

T1 sequence (P16070 21-742): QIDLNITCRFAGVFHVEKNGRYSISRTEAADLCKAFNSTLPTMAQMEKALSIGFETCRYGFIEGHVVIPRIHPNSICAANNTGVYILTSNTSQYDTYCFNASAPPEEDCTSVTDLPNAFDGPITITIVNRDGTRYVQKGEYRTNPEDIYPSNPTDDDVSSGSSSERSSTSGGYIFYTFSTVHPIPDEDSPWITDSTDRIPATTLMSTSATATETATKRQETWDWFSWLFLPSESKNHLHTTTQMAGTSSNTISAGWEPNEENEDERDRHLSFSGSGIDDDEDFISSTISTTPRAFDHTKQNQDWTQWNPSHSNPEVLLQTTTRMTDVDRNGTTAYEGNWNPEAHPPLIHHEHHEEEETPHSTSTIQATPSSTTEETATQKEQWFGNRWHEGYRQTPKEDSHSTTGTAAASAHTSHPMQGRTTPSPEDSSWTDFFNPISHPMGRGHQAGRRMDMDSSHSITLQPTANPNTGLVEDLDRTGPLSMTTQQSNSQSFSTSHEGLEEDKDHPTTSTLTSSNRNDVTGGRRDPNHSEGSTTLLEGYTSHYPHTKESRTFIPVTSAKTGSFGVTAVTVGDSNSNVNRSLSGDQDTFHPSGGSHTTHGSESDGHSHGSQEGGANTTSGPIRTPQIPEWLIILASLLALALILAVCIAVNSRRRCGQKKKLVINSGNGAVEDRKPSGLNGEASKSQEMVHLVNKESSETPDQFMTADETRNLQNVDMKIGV
T2 sequence (P16070 21-742): as above

As to NASAPPEE, in the test with SKOV3 cells [1], the “Effective concentration for cell migration inhibition, lower end” value is given as 1 nM and the “Effective concentration for cell migration inhibition, upper end” value stood at 100 µM.

On to Ac-KPSSPPEE-Am (Ac-KPSSPPEE-NH2) [Å6], for which the “Target identified by immunoprecipitation of crosslinked biotinylated peptide” value in the test with CD44 [2] is given as “targets CD44; also recorded: CD44 as the target”. For the same substance, in the test with A2780 cells [3], the “Effect on migration of A2780 cells” value is on record as “essentially unaffected”. Also, in the test with CD44 [4], the “Formation of higher molecular weight CD44 bands (dimers/oligomers)” value is “higher molecular weight bands are formed”. Besides, in the test with CD44 on SKOV3 cells [5], the “Effect on binding of DF1485 anti-CD44 to SKOV3 cells” value is given as “inhibits the binding of DF1485 anti-CD44 to SKOV3 cells”. In addition, the “Effect on migration of SKOV3 cells” value in the test on SKOV3 cells [1] (10 ng/ml VEGF in NIH3T3-conditioned media, overnight) is listed as “strong inhibition”. Also, in the test on SKOV3 cells [1], the “Effective concentration for cell migration inhibition, lower end” value was 100 nM and the “Effective concentration for cell migration inhibition, upper end” value came out at 5 µM. In the test with CD44 on SKOV3 cells [6], the “Effect on IM7 antibody binding to SKOV3 cells” value was “increase in antibody binding with increasing concentration”. For the same substance, the “Effect on A2780 binding to HA” value in the test on A2780 cells [7] was “does not substantially modulate”. In the test with SKOV3 cells [8] (1 vs 10 μM Å6), the “Effect of a 10-fold increase in peptide concentration on SKOV3 binding to HA” value is reported as “little effect”. Also, the “Effect on SKOV3 binding to HA” value with SKOV3 cells [8] (immobilized HA, 1 or 10 μM Å6, 20 ng/ml IM7) was “enhanced”. Also, in the test on B16 melanoma cells, the “Inhibition of lung metastasis” value is on record as no less than 50%.

In the case of “Å6CbioXL: SKOV3 cells incubated with 100 μM Å6Cbiotin and crosslinked with BS3; lysate polypeptides labeled with Å6Cbio (KPSSPPEE; also: biotin label (Cbio) at an unstated position, BS3 crosslinked to cell polypeptides)”, the “Effect on binding of anti-CD44 to CD44 (band intensity)” value in the test with CD44 [9] is “reduces the binding of anti-CD44 to CD44”.
